Reference: patent US12024494B2, “Salt of LSD1 inhibitor and a polymorph thereof” (CSPC ZHONGQI PHARMACEUTICAL TECHNOLOGY (SHIJIAZHUANG) CO., …, priority 2018, dated 2024)

Tests used:
LSD1 = LSD1 (Homo sapiens (Human), UniProt O60341); experiment: LSD1 inhibition, enzyme fluorescent conjugated method; assay type: biochemical; details: 10 concentrations, initial 10 μM, 3-fold dilution, read-out: IC50 (nM) Mean ± standard deviation
Protocol: The experiment was conducted in duplicate with an initial concentration of 10 μM diluted in a gradient of 3 times, and it was repeated twice at different dates.
LSD1 buffer composition: 50 mM Tris-HCl, pH 7.5, 0.05% CHAPS, 1% DMSO.
Reaction time: reacted at room temperature for 1 hour
1.2.1 Adding enzyme to a freshly prepared buffer
1.2.2 Adding a DMSO solution of the compound to the enzyme mixture using Acoustic Technology (Echo 550, LabCyte Inc. Sunnyvale, CA) at nL level, and incubating at room temperature for 30 minutes
1.2.3 Adding the substrate to a freshly prepared buffer
1.2.4 Incubating at room temperature for 1 hour
1.2.5 Preparing to test the mixture
1.2.6 Using Perkin Elmer Envision to read data
1.2.7 Using Excel and GraphPad Prism software to analyze data

[1] = Hygroscopicity by dynamic vapor adsorption (DVS); assay type: physicochemical; details: 25° C. and 80% RH
Protocol: Instrument model: SMS DVS Advantage dynamic vapor adsorption instrument Test conditions: a sample (10˜15 mg) was taken and placed in the DVS sample pan for testing.
Balance: dm/dt=0.01%/min (shortest: 10 min, longest: 180 min)
drying: drying at 0% RH for 120 min
RH (%) test step range: 0%-90%-0%
Experimental Materials: SMS DVS Advantage dynamic vapor adsorption instrument

[2] = Solid stability of the crystal form (XRPD) under high temperature, high humidity and light; assay type: physicochemical
Protocol: For the samples placed under the conditions of high temperature (60° C.) and high humidity (relative humidity of 92.5% RH), the bottle opening was sealed with an aluminum foil, and some small holes were pierced in the aluminum foil to ensure that the sample can be sufficiently in contact with ambient air, and the samples were placed in the corresponding constant temperature and humidity ovens. The sample exposed to light (open, not covered with aluminum foil) and the control sample (the entire sample bottle was covered with aluminum foil) were placed in a light box. At each time point, 2 samples were weighed as formal test samples. […] The sample bottles were wrapped with an aluminum foil, and the aluminum foil was pierced with small holes. They were also placed in the corresponding constant temperature and humidity ovens. The sample was taken and detected (by XRPD) at the 5th day and 10th day, and the detection results were compared with the initial detection result at 0 day.

[3] = Solvent stability of the crystal form (suspension, 40° C., 2 days); assay type: physicochemical; details: for Crystal form: 40° C., 2 days
Protocol: Appropriate amounts of the compound III were weighed and added to different glass vials, and added respectively with appropriate amount of a solvent or a solvent mixture to prepare a suspension. After added with a magnet rotor and placed at room temperature, the above samples were placed on a constant temperature mixer (40° C.) to be shaken for 2 days (avoid from light). In order to ensure that the sample was as suspended as possible, the amount of the compound and the solvent would be adjusted according to the test phenomenon and even the container used in the experiment may be changed during the experiment. (The dissolved sample was evaporated naturally to dryness).

[4] = system: human small cell lung cancer NCI-H1417 cell subcutaneous xenograft tumor; experiment: In vivo efficacy on NCI-H1417 subcutaneous xenograft tumor in CB-17 SCID mouse; details: for TGI (%) (Day 35) / Tumor volume (mm^3) (Day 35): PO, QD
Protocol: Week age and weight: 6-8 weeks old, weight: 16-21 grams
Human small cell lung cancer NCI-H1417 cells were cultured in a monolayer in vitro with RPMI-1640 medium plus 10% fetal bovine serum, at 37° C. and 5% CO2 to culture and passage. When the cell saturation was 80%-90%, the cells were collected by trypsin-EDTA digestion, counted, adjusted to 10×10^7 cells/mL and resuspended in PBS.
0.2 mL (10×10^6 cells) of NCI-H1417 cells (with Matrigel, volume ratio 1:1) were subcutaneously inoculated on the right back of each mouse. When the average tumor volume reached about 100-150 mm^3, the mice were grouped randomly and started to be administered.
The experimental vehicle was a 0.5% methyl cellulose solution. 5 g of methyl cellulose was weighed, dissolved in 800 mL of ultrapure water, stirred evenly and brought to the volume of 1000 mL with ultrapure water. The test substance was dissolved in the vehicle, prepared into a uniform solution of a certain concentration, and stored at 4° C.
The experimental indicator was to investigate whether the tumor growth was inhibited, delayed or cured. The tumor diameter was measured with a vernier caliper twice a week. The tumor volume is calculated by the formula of V=0.5a×b^2, where a and b represent the long diameter and short diameter of the tumor, respectively.
TGI (%) is used for the anti-tumor efficacy of the compound. TGI (%) reflects the tumor growth inhibition rate. TGI (%)=[(1−(Average tumor volume at the end of the administration of a certain treatment group−average tumor volume at the beginning of the administration of the treatment group))/(Average tumor volume at the end of treatment in the vehicle control group−Average tumor volume at the beginning of the treatment in the vehicle control group)]×100%. Vehicle control group: Vehicle (0.5% methylcellulose solution).

IC50 (LSD1): 8 nM
Classification of hygroscopicity [1]: slightly hygroscopic
ΔW (moisture weight gain) [1]: 1.14%
Crystal form ([2]; 0 day (initial)): Crystal Form A
Crystal form ([2]; High humidity (relative humidity 92.5%, open), 5th day): Crystal Form A
Crystal form ([2]; High humidity (relative humidity 92.5%, open), 10th day): Crystal Form A
Crystal form ([2]; High temperature (60° C., open), 5th day): Crystal Form A
Crystal form ([2]; High temperature (60° C., open), 10th day): Crystal Form A
Crystal form ([2]; Light (total illuminance = 1.2 × 10^6 Lux·hr/near ultraviolet = 200 w·hr/m^2, open), 5th day): Crystal Form A
Crystal form ([2]; Light (total illuminance = 1.2 × 10^6 Lux·hr/near ultraviolet = 200 w·hr/m^2, open), 10th day): Crystal Form A
Solid stability (conclusion) ([2]; high temperature, high humidity and strong light): good stability
Crystal form ([3]; Acetonitrile): Crystal form A
Crystal form ([3]; Isopropanol): Crystal form A
Crystal form ([3]; Isopropyl acetate): Crystal form A
Crystal form ([3]; Methanol, dissolved, and then precipitated): Crystal form A
Crystal form ([3]; Tetrahydrofuran): Crystal form A
Solvent stability (conclusion) ([3]; in the solvent): good stability
Compound: N[C@H]1CC[C@H](c2nc(C3(CN[C@@H]4C[C@H]4c4ccccc4)CC3)no2)CC1 [Crystal form A of Compound III]
TGI (%) (Day 35) ([4]; 1 mg/kg): 81.9%
Tumor volume (mm^3) (Day 35) ([4]; 1 mg/kg): 178 ± 17 mm^3
TGI (%) (Day 35) ([4]; 1.5 mg/kg): 99.2%
Tumor volume (mm^3) (Day 35) ([4]; 1.5 mg/kg): 121 ± 15 mm^3
TGI (%) (Day 35) ([4]; 3 mg/kg): 115.6%
Tumor volume (mm^3) (Day 35) ([4]; 3 mg/kg): 68 ± 13 mm^3
Anti-tumor effect (conclusion) ([4]; NCI-H1417 xenograft tumor model): excellent anti-tumor effect
